From patent US20020137929A1, “1 - (3-heterocyclylphenyl) isothiourea, -isourea, -guanidine and -amidine herbicidal agents” (Intellectual Property Department, BASF Aktiengesellschaft, priority 1998, published 2002)

Assays:
ORYSAT (Rice, Tebonnet) = test: Preemergence herbicidal evaluation; format: in vivo, Oryza sativa, (L.) Tebonnet; conditions: rated 4-5 weeks after treatment
In short: (§1)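 Each species is sown separately in potting soil over roughly an inch of soil before any emergence. The soil surface then receives an aqueous acetone spray delivering about 0.0156 to 0.500 kg/ha of compound. After four to five weeks, injury is scored from 0 to 9 relative to a control.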

[1] = system: TRZAWR (Wheat, Winter, cv Riband); test: Postemergence herbicidal evaluation; format: in vivo, Triticum aestivum; conditions: postemergence
In short: (§2)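 Visual 0–9 rating versus control (stand, vigor, malformation, size, chlorosis, overall appearance), taken four to five weeks post-spray. Two-week-old seedlings received roughly 0.0156–0.500 kg/ha active in acetone/water (50/50) with 0.5% TWEEN 20 via nozzle at 40 psi.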

AMBEL (Ragweed, Common) [2] = test: Preemergence herbicidal evaluation; format: in vivo, Ambrosia artemisifolia; conditions: rated 4-5 weeks after treatment
In short: as §1

[3] = system: CHEAL (Lambsquarters, Common); test: Preemergence herbicidal evaluation; format: in vivo, Chenopodium album; conditions: rated 4-5 weeks after treatment
In short: as §1

CASOB (Sicklepod) [4] = test: Postemergence herbicidal evaluation; format: in vivo, Cassia obtusifolia; conditions: postemergence
In short: as §2

[5] = system: CHEAL (Lambsquarters, Common); test: Postemergence herbicidal evaluation; format: in vivo, Chenopodium album; conditions: postemergence
In short: as §2

CASOB (Sicklepod) [6] = test: Preemergence herbicidal evaluation; format: in vivo, Cassia obtusifolia; conditions: rated 4-5 weeks after treatment
In short: as §1

AMBEL (Ragweed, Common) [7] = test: Postemergence herbicidal evaluation; format: in vivo, Ambrosia artemisifolia; conditions: postemergence
In short: as §2

[8] = system: IPOHE (Morningglory, Ivyleaf); test: Postemergence herbicidal evaluation; format: in vivo, Ipomoea hederacea; conditions: postemergence
In short: as §2

[9] = system: SAGPY (Arrowhead (Pygmaea)); test: Preemergence weed control under flooded paddy conditions; format: in vivo, Sagittaria pygmaea; conditions: rated 3-4 weeks after treatment
In short: (§3)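 Using flooded silt loam (water 1.5 to 3 cm deep), seeds sown in the top 0.5 cm were exposed preemergence to compound pipetted into the flood at about 0.0313 to 0.500 kg/ha. Effects were scored 0-9 by eye three to four weeks later.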

[10] = system: IPOHE (Morningglory, Ivyleaf); test: Preemergence herbicidal evaluation; format: in vivo, Ipomoea hederacea; conditions: rated 4-5 weeks after treatment
In short: as §1

ABUTH (Velvetleaf) = test: Preemergence herbicidal evaluation; format: in vivo, Abutilon theophrasti; conditions: rated 4-5 weeks after treatment
In short: as §1

MOOVA (Monochoria) = test: Preemergence weed control under flooded paddy conditions; format: in vivo, Monochoria vaginalis; conditions: rated 3-4 weeks after treatment
In short: as §3

[11] = system: GLXMAW (Soybean, Williams); test: Preemergence herbicidal evaluation; format: in vivo, Glycine max, (L.) Merr. cv Williams; conditions: rated 4-5 weeks after treatment
In short: as §1

[12] = system: GLXMAW (Soybean, Williams); test: Postemergence herbicidal evaluation; format: in vivo, Glycine max, (L.) Merr. cv Williams; conditions: postemergence
In short: as §2

ECHCG (Barnyardgrass) = test: Postemergence herbicidal evaluation; format: in vivo, Echinochloa crus-galli; conditions: postemergence
In short: as §2

CCOC(=O)CN1C(=O)C(SC)SC1=Nc1cc(-n2c(=O)cc(C(F)(F)F)n(C)c2=O)c(F)cc1Cl (centres unmarked) [Compound 125, Ethyl 2-{{2-chloro-5-[3,6-dihydro-3-methyl-2,6-dioxo-4-(trifluoromethyl)-1(2H)-pyrimidinyl]-4-fluorophenyl}imino}-5-(methylthio)-4-oxo-3-thiazolidineacetate]
Preemergence herbicidal rating ORYSAT (ORYSAT (Rice, Tebonnet); rate 0.0156 kg/ha): 0.0 | Preemergence herbicidal rating ORYSAT (ORYSAT (Rice, Tebonnet); rate 0.0313 kg/ha): 0.0 | Preemergence herbicidal rating ORYSAT (ORYSAT (Rice, Tebonnet); rate 0.0625 kg/ha): 1.0 | Preemergence herbicidal rating ORYSAT (ORYSAT (Rice, Tebonnet); rate 0.1250 kg/ha): 1.0 | Preemergence herbicidal rating ORYSAT (ORYSAT (Rice, Tebonnet); rate 0.2500 kg/ha): 4.0 | Preemergence herbicidal rating ORYSAT (ORYSAT (Rice, Tebonnet); rate 0.5000 kg/ha): 4.0 | herbicidal rating TRZAWR ([1]; rate 0.0156 kg/ha): 4.3 | herbicidal rating TRZAWR ([1]; rate 0.0313 kg/ha): 5.0 | herbicidal rating TRZAWR ([1]; rate 0.0625 kg/ha): 5.0 | Preemergence herbicidal rating AMBEL (AMBEL (Ragweed, Common) [2]; rate 0.0156 kg/ha): 0.0 | Preemergence herbicidal rating AMBEL (AMBEL (Ragweed, Common) [2]; rate 0.0313 kg/ha): 6.0 | Preemergence herbicidal rating AMBEL (AMBEL (Ragweed, Common) [2]; rate 0.0625 kg/ha): 9.0 | Preemergence herbicidal rating AMBEL (AMBEL (Ragweed, Common) [2]; rate 0.1250 kg/ha): 9.0 | Preemergence herbicidal rating AMBEL (AMBEL (Ragweed, Common) [2]; rate 0.2500 kg/ha): 9.0 | Preemergence herbicidal rating AMBEL (AMBEL (Ragweed, Common) [2]; rate 0.5000 kg/ha): 9.0 | Preemergence herbicidal rating CHEAL ([3]; rate 0.0156 kg/ha): 9.0 | Preemergence herbicidal rating CHEAL ([3]; rate 0.0313 kg/ha): 9.0 | Preemergence herbicidal rating CHEAL ([3]; rate 0.0625 kg/ha): 9.0 | Preemergence herbicidal rating CHEAL ([3]; rate 0.1250 kg/ha): 9.0 | Preemergence herbicidal rating CHEAL ([3]; rate 0.2500 kg/ha): 9.0 | Preemergence herbicidal rating CHEAL ([3]; rate 0.5000 kg/ha): 9.0 | herbicidal rating CASOB (CASOB (Sicklepod) [4]; rate 0.0156 kg/ha): 1.0 | herbicidal rating CASOB (CASOB (Sicklepod) [4]; rate 0.0313 kg/ha): 2.0 | herbicidal rating CASOB (CASOB (Sicklepod) [4]; rate 0.0625 kg/ha): 2.0 | herbicidal rating CHEAL ([5]; rate 0.0156 kg/ha): 3.0 | herbicidal rating CHEAL ([5]; rate 0.0313 kg/ha): 9.0 | herbicidal rating CHEAL ([5]; rate 0.0625 kg/ha): 9.0 | Preemergence herbicidal rating CASOB (CASOB (Sicklepod) [6]; rate 0.0156 kg/ha): 0.0 | Preemergence herbicidal rating CASOB (CASOB (Sicklepod) [6]; rate 0.0313 kg/ha): 1.0 | Preemergence herbicidal rating CASOB (CASOB (Sicklepod) [6]; rate 0.0625 kg/ha): 3.0 | Preemergence herbicidal rating CASOB (CASOB (Sicklepod) [6]; rate 0.1250 kg/ha): 2.0 | Preemergence herbicidal rating CASOB (CASOB (Sicklepod) [6]; rate 0.2500 kg/ha): 9.0 | Preemergence herbicidal rating CASOB (CASOB (Sicklepod) [6]; rate 0.5000 kg/ha): 9.0 | herbicidal rating AMBEL (AMBEL (Ragweed, Common) [7]; rate 0.0156 kg/ha): 3.0 | herbicidal rating AMBEL (AMBEL (Ragweed, Common) [7]; rate 0.0313 kg/ha): 8.0 | herbicidal rating AMBEL (AMBEL (Ragweed, Common) [7]; rate 0.0625 kg/ha): 8.0 | herbicidal rating IPOHE ([8]; rate 0.0156 kg/ha): 9.0 | herbicidal rating IPOHE ([8]; rate 0.0313 kg/ha): 9.0 | herbicidal rating IPOHE ([8]; rate 0.0625 kg/ha): 9.0 | herbicidal effect rating, SAGPY ([9]; 0.0313 kg/ha): 3.0 | herbicidal effect rating, SAGPY ([9]; 0.0625 kg/ha): 4.0 | herbicidal effect rating, SAGPY ([9]; 0.1250 kg/ha): 4.0 | herbicidal effect rating, SAGPY ([9]; 0.2500 kg/ha): 9.0 | Preemergence herbicidal rating IPOHE ([10]; rate 0.0156 kg/ha): 0.0 | Preemergence herbicidal rating IPOHE ([10]; rate 0.0313 kg/ha): 0.0 | Preemergence herbicidal rating IPOHE ([10]; rate 0.0625 kg/ha): 4.0 | Preemergence herbicidal rating IPOHE ([10]; rate 0.1250 kg/ha): 4.0 | Preemergence herbicidal rating IPOHE ([10]; rate 0.2500 kg/ha): 9.0 | Preemergence herbicidal rating IPOHE ([10]; rate 0.5000 kg/ha): 9.0 | Preemergence herbicidal rating ABUTH (ABUTH (Velvetleaf); rate 0.0156 kg/ha): 0.0 | Preemergence herbicidal rating ABUTH (ABUTH (Velvetleaf); rate 0.0313 kg/ha): 2.0 | Preemergence herbicidal rating ABUTH (ABUTH (Velvetleaf); rate 0.0625 kg/ha): 4.0 | Preemergence herbicidal rating ABUTH (ABUTH (Velvetleaf); rate 0.1250 kg/ha): 6.0 | Preemergence herbicidal rating ABUTH (ABUTH (Velvetleaf); rate 0.2500 kg/ha): 9.0 | Preemergence herbicidal rating ABUTH (ABUTH (Velvetleaf); rate 0.5000 kg/ha): 9.0 | herbicidal effect rating, MOOVA (MOOVA (Monochoria); 0.0313 kg/ha): 5.0 | herbicidal effect rating, MOOVA (MOOVA (Monochoria); 0.0625 kg/ha): 7.0 | herbicidal effect rating, MOOVA (MOOVA (Monochoria); 0.1250 kg/ha): 7.0 | herbicidal effect rating, MOOVA (MOOVA (Monochoria); 0.2500 kg/ha): 9.0 | Preemergence herbicidal rating GLXMAW ([11]; rate 0.0156 kg/ha): 0.0 | Preemergence herbicidal rating GLXMAW ([11]; rate 0.0313 kg/ha): 0.0 | Preemergence herbicidal rating GLXMAW ([11]; rate 0.0625 kg/ha): 0.0 | Preemergence herbicidal rating GLXMAW ([11]; rate 0.1250 kg/ha): 3.0 | Preemergence herbicidal rating GLXMAW ([11]; rate 0.2500 kg/ha): 4.0 | Preemergence herbicidal rating GLXMAW ([11]; rate 0.5000 kg/ha): 7.0 | herbicidal rating GLXMAW ([12]; rate 0.0156 kg/ha): 7.3 | herbicidal rating GLXMAW ([12]; rate 0.0313 kg/ha): 8.0 | herbicidal rating GLXMAW ([12]; rate 0.0625 kg/ha): 8.7 | herbicidal rating ECHCG (ECHCG (Barnyardgrass); rate 0.0156 kg/ha): 1.0 | herbicidal rating ECHCG (ECHCG (Barnyardgrass); rate 0.0313 kg/ha): 2.0 | herbicidal rating ECHCG (ECHCG (Barnyardgrass); rate 0.0625 kg/ha): 3.0
